Values joined by “and” are separate entries in the source; they are usually repeats but may differ in a detail not shown here. Identical values can stand only once.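 Test compounds were applied to cells in 96-well plates for 48 hours at 5 doses. The concentration for 50% growth inhibition is given as GI50. TGI denotes the concentration required for complete inhibition of growth.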
Key:
Experiment in all cases: NCI-60 cell line screen, 48 h
SNB-75 CNS = tested on: SNB-75 CNS
SK-MEL-28 melanoma = tested on: SK-MEL-28 melanoma
A549 NSCLC = tested on: A549 NSCLC
NCI-H226 lung = tested on: NCI-H226 lung
SNB-19 CNS = tested on: SNB-19 CNS
HCT-116 colon = tested on: HCT-116 colon
IGROV1 ovarian = tested on: IGROV1 ovarian
BT-549 breast = tested on: BT-549 breast
SW-620 colon = tested on: SW-620 colon
TK-10 renal = tested on: TK-10 renal
HOP-92 NSCLC = tested on: HOP-92 NSCLC
SN12C renal = tested on: SN12C renal
NCI-H522 lung = tested on: NCI-H522 lung
MALME-3M melanoma = tested on: MALME-3M melanoma
MOLT-4 leukemia = tested on: MOLT-4 leukemia
RXF 393 renal = tested on: RXF 393 renal
NCI-H460 lung = tested on: NCI-H460 lung
OVCAR-3 ovarian = tested on: OVCAR-3 ovarian
HT29 colon = tested on: HT29 colon
SF-295 CNS = tested on: SF-295 CNS
ACHN renal = tested on: ACHN renal
SF-539 CNS = tested on: SF-539 CNS
COLO 205 colon = tested on: COLO 205 colon
PC-3 prostate = tested on: PC-3 prostate
NCI/ADR-RES ovarian = tested on: NCI/ADR-RES ovarian
SF-268 CNS = tested on: SF-268 CNS
K-562 leukemia = tested on: K-562 leukemia
UO-31 renal = tested on: UO-31 renal
EKVX NSCLC = tested on: EKVX NSCLC
MDA-N = tested on: MDA-N
MCF7 breast = tested on: MCF7 breast
MDA-MB-435 = tested on: MDA-MB-435
786-0 renal = tested on: 786-0 renal
MDA-MB-231 breast = tested on: MDA-MB-231 breast
SK-OV-3 ovarian = tested on: SK-OV-3 ovarian
SK-MEL-5 melanoma = tested on: SK-MEL-5 melanoma
LOX IMVI melanoma = tested on: LOX IMVI melanoma
U251 CNS = tested on: U251 CNS
HCC-2998 colon = tested on: HCC-2998 colon
KM12 colon = tested on: KM12 colon
NCI-H23 lung = tested on: NCI-H23 lung
UACC-62 melanoma = tested on: UACC-62 melanoma
SK-MEL-2 melanoma = tested on: SK-MEL-2 melanoma
OVCAR-8 ovarian = tested on: OVCAR-8 ovarian
T-47D breast = tested on: T-47D breast
OVCAR-5 ovarian = tested on: OVCAR-5 ovarian
M14 melanoma = tested on: M14 melanoma
HOP-62 NSCLC = tested on: HOP-62 NSCLC
RPMI-8226 leukemia = tested on: RPMI-8226 leukemia
CAKI-1 renal = tested on: CAKI-1 renal
SR leukemia = tested on: SR leukemia
OVCAR-4 ovarian = tested on: OVCAR-4 ovarian
HL-60(TB) leukemia = tested on: HL-60(TB) leukemia
CCRF-CEM leukemia = tested on: CCRF-CEM leukemia
UACC-257 melanoma = tested on: UACC-257 melanoma
A498 renal = tested on: A498 renal
HCT-15 colon = tested on: HCT-15 colon
HS 578T breast = tested on: HS 578T breast
DU-145 prostate = tested on: DU-145 prostate

COc1ccc(CNC(=O)[C@H](Cc2ccc(O)cn2)NC(C)=O)cc1OC
TGI (SNB-75 CNS): > 100000 nM | TGI (SK-MEL-28 melanoma): > 100000 nM | TGI (A549 NSCLC): > 100000 nM | TGI (NCI-H226 lung): > 100000 nM | TGI (SNB-19 CNS): > 100000 nM | TGI (HCT-116 colon): > 100000 nM | TGI (IGROV1 ovarian): > 100000 nM | TGI (BT-549 breast): > 100000 nM | TGI (SW-620 colon): > 100000 nM | TGI (TK-10 renal): > 100000 nM | TGI (HOP-92 NSCLC): > 100000 nM | TGI (SN12C renal): > 100000 nM | TGI (NCI-H522 lung): > 100000 nM | TGI (MALME-3M melanoma): > 100000 nM | TGI (MOLT-4 leukemia): > 100000 nM | TGI (RXF 393 renal): > 100000 nM | TGI (NCI-H460 lung): > 100000 nM | TGI (OVCAR-3 ovarian): > 100000 nM | TGI (HT29 colon): > 100000 nM | TGI (SF-295 CNS): > 100000 nM | TGI (ACHN renal): > 100000 nM | TGI (SF-539 CNS): > 100000 nM | TGI (COLO 205 colon): > 100000 nM | TGI (PC-3 prostate): > 100000 nM | TGI (NCI/ADR-RES ovarian): > 100000 nM | TGI (SF-268 CNS): > 100000 nM | TGI (K-562 leukemia): > 100000 nM | TGI (UO-31 renal): > 100000 nM | TGI (EKVX NSCLC): > 100000 nM | TGI (MDA-N): > 100000 nM | TGI (MCF7 breast): > 100000 nM | TGI (MDA-MB-435): > 100000 nM | TGI (786-0 renal): > 100000 nM | TGI (MDA-MB-231 breast): > 100000 nM | TGI (SK-OV-3 ovarian): > 100000 nM | TGI (SK-MEL-5 melanoma): > 100000 nM | TGI (LOX IMVI melanoma): > 100000 nM | TGI (U251 CNS): > 100000 nM | TGI (HCC-2998 colon): > 100000 nM | TGI (KM12 colon): > 100000 nM | TGI (NCI-H23 lung): > 100000 nM | TGI (UACC-62 melanoma): > 100000 nM | TGI (SK-MEL-2 melanoma): > 100000 nM | TGI (OVCAR-8 ovarian): > 100000 nM | TGI (T-47D breast): > 100000 nM | TGI (OVCAR-5 ovarian): > 100000 nM | TGI (M14 melanoma): > 100000 nM | TGI (HOP-62 NSCLC): > 100000 nM | TGI (RPMI-8226 leukemia): > 100000 nM | TGI (CAKI-1 renal): > 100000 nM | TGI (SR leukemia): > 100000 nM | TGI (OVCAR-4 ovarian): > 100000 nM | TGI (HL-60(TB) leukemia): > 100000 nM | TGI (CCRF-CEM leukemia): > 100000 nM | TGI (UACC-257 melanoma): > 100000 nM | TGI (A498 renal): > 100000 nM | TGI (HCT-15 colon): > 100000 nM | TGI (HS 578T breast): > 100000 nM | TGI (DU-145 prostate): > 100000 nM

C=C1C(C(O)C[C@H](C)C2O[C@@]3(CCCCO3)CCC2C)O[C@@H]2CCC3(CCC(/C=C/[C@@H](C)C4CC(C)=CC5(O4)O[C@H](C[C@](C)(O)C(=O)O)CCC5O)O3)OC2[C@@H]1O (stereo partly specified)
GI50 (SNB-75 CNS): 4.7 nM | TGI (SNB-75 CNS): 39.5 nM and 4.2 nM | GI50 (SK-MEL-28 melanoma): 4.33 nM | TGI (SK-MEL-28 melanoma): 15.1 nM and 6.35 nM | GI50 (A549 NSCLC): 47.7 nM | TGI (A549 NSCLC): 255 nM and 258 nM | TGI (NCI-H226 lung): 8.28 nM | GI50 (SNB-19 CNS): 4.86 nM | TGI (SNB-19 CNS): 15.8 nM and 15.1 nM | GI50 (HCT-116 colon): 5.57 nM | GI50 (IGROV1 ovarian): 32.2 nM | TGI (IGROV1 ovarian): 137 nM and 64.1 nM | GI50 (BT-549 breast): 3.37 nM | TGI (BT-549 breast): 11.5 nM and 27.6 nM | GI50 (SW-620 colon): 23.1 nM | TGI (SW-620 colon): 252 nM and 102 nM | GI50 (TK-10 renal): 67 nM | TGI (TK-10 renal): 202 nM and 36.2 nM | GI50 (HOP-92 NSCLC): 13 nM | TGI (HOP-92 NSCLC): 38.6 nM and 9.11 nM | GI50 (SN12C renal): 20.2 nM | GI50 (NCI-H522 lung): 6.29 nM | TGI (NCI-H522 lung): 28.8 nM and 5.39 nM | GI50 (MALME-3M melanoma): 9.97 nM | GI50 (MOLT-4 leukemia): 24.1 nM | TGI (MOLT-4 leukemia): 61.5 nM and 53.5 nM | GI50 (RXF 393 renal): 0.277 nM | GI50 (NCI-H460 lung): 6.31 nM | TGI (NCI-H460 lung): 33.2 nM and 43.7 nM | GI50 (OVCAR-3 ovarian): 12.1 nM | TGI (OVCAR-3 ovarian): 31.6 nM and 9.27 nM | GI50 (HT29 colon): 21 nM | TGI (HT29 colon): 56.1 nM and 39.6 nM | GI50 (SF-295 CNS): 7.48 nM | TGI (SF-295 CNS): 86.7 nM and 25.9 nM | GI50 (ACHN renal): 25.9 nM | TGI (ACHN renal): 101 nM and 61.8 nM | GI50 (SF-539 CNS): 4.56 nM | TGI (SF-539 CNS): 17.5 nM and 9.41 nM | GI50 (PC-3 prostate): 12.6 nM | TGI (PC-3 prostate): 35.2 nM and 19.1 nM | GI50 (NCI/ADR-RES ovarian): 111 nM | TGI (NCI/ADR-RES ovarian): > 1000 nM and 778 nM | TGI (SF-268 CNS): 8.56 nM | TGI (K-562 leukemia): 163 nM and 303 nM | GI50 (UO-31 renal): 96 nM | TGI (UO-31 renal): 238 nM and 101 nM | GI50 (EKVX NSCLC): 19.2 nM | TGI (EKVX NSCLC): 124 nM and 17.4 nM | GI50 (MDA-N): 5.35 nM | GI50 (MCF7 breast): 19.9 nM | TGI (MCF7 breast): 44.1 nM and 20.7 nM | GI50 (MDA-MB-435): 7.36 nM | GI50 (786-0 renal): 10.8 nM | TGI (786-0 renal): 27.2 nM and 34.3 nM | GI50 (MDA-MB-231 breast): 11.7 nM | GI50 (SK-OV-3 ovarian): 10.6 nM | TGI (SK-OV-3 ovarian): 42.1 nM and 34.8 nM | TGI (SK-MEL-5 melanoma): 15.5 nM and 7.96 nM | GI50 (LOX IMVI melanoma): 5.88 nM | GI50 (U251 CNS): 8.08 nM | TGI (HCC-2998 colon): 9.25 nM | GI50 (KM12 colon): 6.28 nM | TGI (NCI-H23 lung): 32.3 nM | GI50 (UACC-62 melanoma): 4.29 nM | TGI (UACC-62 melanoma): 16.1 nM and 8.61 nM | GI50 (SK-MEL-2 melanoma): 3.53 nM | TGI (SK-MEL-2 melanoma): 11.2 nM and 8.49 nM | GI50 (OVCAR-8 ovarian): 26.5 nM | GI50 (T-47D breast): 13.1 nM | TGI (T-47D breast): 185 nM and 64.1 nM | GI50 (OVCAR-5 ovarian): 7.06 nM | TGI (OVCAR-5 ovarian): 23.9 nM and 27.5 nM | GI50 (M14 melanoma): 2.77 nM | TGI (M14 melanoma): 9.85 nM and 6.27 nM | GI50 (HOP-62 NSCLC): 7.4 nM and 3.98 nM | TGI (HOP-62 NSCLC): 25.5 nM and 10.9 nM | GI50 (RPMI-8226 leukemia): 4.22 nM | TGI (RPMI-8226 leukemia): 31.4 nM and 17.3 nM | GI50 (CAKI-1 renal): 16.8 nM | TGI (CAKI-1 renal): 52.3 nM and 40.9 nM | GI50 (SR leukemia): 54.1 nM | GI50 (OVCAR-4 ovarian): 23.1 nM | TGI (OVCAR-4 ovarian): 89.8 nM and 62.7 nM | GI50 (HL-60(TB) leukemia): 1.62 nM | TGI (HL-60(TB) leukemia): 7.8 nM and 16 nM | GI50 (CCRF-CEM leukemia): 5.78 nM | TGI (CCRF-CEM leukemia): 40.9 nM and 93.1 nM | GI50 (UACC-257 melanoma): 13.7 nM | TGI (UACC-257 melanoma): 34.2 nM and 23.3 nM | GI50 (A498 renal): 31.5 nM | GI50 (HCT-15 colon): 46.1 nM | TGI (HCT-15 colon): 203 nM and 55 nM | GI50 (HS 578T breast): 2.65 nM | TGI (HS 578T breast): 27.1 nM and 19 nM | GI50 (DU-145 prostate): 23.1 nM | TGI (DU-145 prostate): 137 nM and 37.7 nM

— PubChem BioAssay (NCI)
